Here are results for 2 compounds from patent US20240276986A1, “Compositions With Ethofumesate And A Safener” (BAYER AKTIENGESELLSCHAFT, priority 2021, published 2024).

Data set [1] has as its system barley and wheat. The note with it: greenhouse studies; cited from earlier work.
For data set [2], the system named is winter barley (HORVW). As to the kind of experiment: Field trial, crop injury in winter barley after early post-emergence spray. The class given is in vivo, Hordeum vulgare. The note with it: post-emergence BBCH 11, 140 L/ha, ethofumesate 250 g/ha, combination 250 + 100 g/ha, visual rating vs untreated control. The method, then: (§1) In field trials the interaction of (i) ethofumesate and (ii) the safener mefenpyr-diethyl concerning cereal crop injury was investigated.
(§2) Plots of different verities of wheat and barley crops in the field were sprayed with an application volume of 140 L/ha with a handheld spray boom.
(§3) Application of the application spray compostions was carried out early in each case post-emergence at BBCH growth stage 11 (first leaf unfolded) of the respective wheat or barley crops.
The three different winter barley (HORVW) varieties tested were CALIFORNIA, CIERZO and KWS ORBIT.
(§4) The maximum crop damage and the final crop damage were in each case visually rated on a percentage scale in relation to the untreated control (100%=all plants dead, complete crop kill; 50%=green plant biomass reduced by 50%, and 0%=like control plot, no crop injury).
(§5) The main symptoms of crop damage observed were thinning and stunting.

For data set [3], the system named is soft winter wheat (TRZAW). The data set is described as follows: Field trial, crop injury in soft winter wheat after early post-emergence spray. It counts as in vivo, Triticum aestivum. The note with it: post-emergence BBCH 11, 140 L/ha, ethofumesate 250 g/ha, combination 250 + 100 g/ha, visual rating vs untreated control. How it is done: as §1, §2, §3
The four different soft winter wheat (TRZAW) varieties tested were ARTHUR NICK, ELIXER, PISTOLO and RUBISKO.
as §4, §5

Data set [4] has as its system annual bluegrass (Poa annua L.). The note with it: pre-emergence or early post-emergence at 0.8 to 4.5 kg/ha; Italian ryegrass seed fields; cited from earlier work.
Data set [5] has as its system volunteer wheat (Triticum aestivum L.). The note with it: cited from earlier work.
Data set [6] has as its system cereral crops such as wheat or barley. The data set is described as follows: Own experiments, safening effect of mefenpyr-diethyl used with flufenacet. It counts as in vivo. The note with it: used with flufenacet (WSSA group 15); cereal crops such as wheat or barley.

Like-named read-outs stand apart in the source and are kept apart here.

For `CCOC1Oc2ccc(OS(C)(=O)=O)cc2C1(C)C` (stereo not shown) [Ethofumesate, 2-ethoxy-2,3-dihydro-3,3-dimethylbenzofuran-5-yl methanesulfonate], in data set [1], the “susceptibility of barley and wheat to soil residues of ethofumesate relative to corn” value is reported as “about 10 times”. The “Final crop damage in %” value in data set [2] (Variety CALIFORNIA) is reported as 12.5%; in data set [2] (Variety CIERZO) it was 19.7%; in data set [2] (Variety KWS ORBIT), 25.0%; in data set [3] (Variety ARTUR NICK), 11.6%; in data set [3] (Variety ELIXER), 28.3%; in data set [3] (Variety PISTOLO), 14.0%. Also, in data set [3] (Variety RUBISKO), the “Final crop damage in %” value is 13.7%. In addition, the “Maximum crop damage in %” value is given as 25% in data set [2] (Variety CALIFORNIA); 28% in data set [2] (Variety CIERZO); 45% in data set [2] (Variety KWS ORBIT); 16% in data set [3] (Variety ARTUR NICK); 63% in data set [3] (Variety ELIXER); 24% in data set [3] (Variety PISTOLO). In addition, the “Maximum crop damage in %” value in data set [3] (Variety RUBISKO) amounted to 30%. In addition, the “control of annual bluegrass” value in data set [4] was “eliminated annual bluegrass”. The “control of volunteer wheat” value is reported as “eliminated the wheat” in data set [5] (1.7 kg/ha or more, wheat in the one- to three-leaf stage) and “not eliminated” in data set [5] (applied pre-emergence soon after planting or at the end of November to wheat in the four-leaf to four-tiller stage).
As for `CCOC(=O)C1=NN(c2ccc(Cl)cc2Cl)C(C)(C(=O)OCC)C1` (stereo not shown) [mefenpyr-diethyl, ethyl 1-(2,4-dichlorophenyl)-5-(ethoxycarbonyl)-5-methyl-2-pyrazoline-3-carboxylate], the safening effect result in data set [6] was “does not have a safening effect”.
